Reference: patent US9630894B2, “Energy efficient method and apparatus for the extraction of biomolecules from dilute aqueous solution” (DYNASEP INC., priority 2012, dated 2017)

Columns and labels:
Format in all cases: physicochemical
[1] = Packed-column extraction of ethanol and ABE solutions with liquid DME, incremental distribution coefficients; details: for Distribution Coefficient: ABE solution
Experimental: The tests were carried out in a 50-inch long by 0.68-inch internal diameter (ID) column containing stainless steel distillation packing to increase mass transfer between the liquid DME and the aqueous solution. The flow rate of the liquid DME for all the tests was about […], which calculates to a superficial velocity of the liquid DME of ˜0.3 cm/sec.
For each test, about 65 g of a pre-made feed solution was charged to the extraction column, and the column was sealed. DME was introduced into the system and pressure was maintained at 250 psi with the lab pump. Each run was carried out at ambient temperature (about 30° C.), and flow was manually controlled with the pressure-reduction valve.
About ⅓ of the charge was extracted in each test with DME in three fractions, and the raffinate was collected at the end of each test in two fractions. In the event that the concentration of ethanol, or ABE, in the raffinate was not homogeneous along the length of the column, the raffinate was collected in two fractions where RAF#1 was the first (bottom) portion of the raffinate drained and RAF#2 was the remaining (upper) portion.
All samples along with controls were sent to R.D. Laboratories (Washington, Mo.) for gas chromatography (GC) analysis.
The distribution coefficient (DC) is calculated as the ratio of the concentration of the component in the extract (y) phase to the concentration of the component in the raffinate (x) phase, or DC=Cy/Cx. Using the material balance information in the tables above, and the component analysis supplied by R.D. Labs, the incremental DCs for each fraction were calculated. These DCs are calculated using the conservative assumption that there is no dissolved DME in the liquid phase remaining in the extractor.

[2] = Distribution coefficients of ABE mixtures between DME and aqueous phase in agitated pressure vessel, HPLC
Experimental: The compositions of the aqueous mixtures were based on concentrations typically produced in a cellulosic fermentation.
Mixtures were charged to a pressure vessel and agitated to provide adequate contacting between the aqueous and solvent (DME) phases. Heat tape was used to control the temperature of the liquid that was measured by thermocouples. Pressure and temperature measurements were taken every five minutes. After temperature and pressure stabilization agitation was ceased and the liquid phases were allowed to fully settle.
A mass balance was also performed on each component of the ABE and BE mixtures to determine a degree of accuracy of the results.

[3] = CCC extraction with DME of clarified fermentation broth from Clostridium acetobutylicum, GC and DNS assay
Experimental: This example describes three different runs of the CCC with fermentation broth from Clostridium acetobutylicum. […] The fermentation was intentionally interrupted prior to completion.
The extraction column operated at room temperature (˜25° C.) throughout the column. Periodic extract and raffinate samples were taken and analyzed for the constituents in the extract and raffinate discharges.
This example describes three different runs. In all cases, the mass of solvent to the mass of feed ratio (S/F) was 0.9. In all example the fermentation broth was first centrifuged to removal all cellular matter. Thus, the feed solution was clarified. In the case of the first run, the following components were measured via gas chromatograph (GC) analysis using external standard calibration. The external standard was run prior to analyzing the samples to provide individual calibration between peak area and the respective constituent under measure. […] Acetate was the conjugate base of acetic acid. Butyrate was the conjugate base of butyric acid. All components were quantified in the extract and raffinate. Since the extract and raffinate are mostly water and DME dissolves in water to approximately 20 wt. %, the samples were allowed to degas over a 24 hour period.
During the run, samples were taken of the extract and raffinate. In the case of the extract, the bulk DME was removed by reduction of pressure and addition of heat to flash the DME from the water and other solution constituents.
Extract and raffinate samples were collected at periodic intervals during the CCC testing. […] Glucose was measured via a DNS (3,5-dinitrosalicylic acid) assay.
In cases where the extract formed a two phase solution, the extract samples were diluted with distilled water to create a single phase and homogenous sample prior to GC. The dilution factor was then used to correct the GC measurements for concentrations prior to dilution.

## CC(C)=O [Acetone, acetone]
[1]; fraction F1, liquid DME
  Distribution Coefficient: 0.24
[1]; fraction F2, liquid DME
  Distribution Coefficient: 0.16
[1]; fraction F3, liquid DME
  Distribution Coefficient: 0.04
[1]; previous results, DME/aqueous
  distribution coefficient, previous measurements: 0.25
[2]; 38° C.
  distribution coefficient (slope of line fit): 1.27
[2]; test ABE1, […] C., 104 psig
  DC: 1.28
[2]; test ABE2, 38.3 ° C., 102 psig
  DC: 1.25
[2]; test ABE3, 38.3 ° C., 103 psig
  DC: 1.23
[2]; test ABE4, 38.0 ° C., 103 psig
  DC: 1.34
[3]; Run 3, Extract Bot, time 31 min
  concentration in sample: 7880 µg/mL
[3]; Run 3, Extract Bot, time 37 min
  concentration in sample: 7900 µg/mL
[3]; Run 3, Extract Top, time 31 min
  concentration in sample: 7030 µg/mL
[3]; Run 3, Extract Top, time 37 min
  concentration in sample: 6440 µg/mL
[3]; Run 3, Extract, time 22 min
  concentration in sample: 2980 µg/mL
[3]; Run 3, Extract, time 27 min
  concentration in sample: 5300 µg/mL
[3]; Run 3, Extract, time 43 min
  concentration in sample: 5140 µg/mL
[3]; Run 3, Extract, time 70 min
  concentration in sample: 4610 µg/mL
[3]; Run 3, Extract, time 74 min
  concentration in sample: 4090 µg/mL
[3]; Run 3, Extract, time 78 min
  concentration in sample: 3830 µg/mL
[3]; Run 3, Extract, time 82 min
  concentration in sample: 4630 µg/mL
[3]; Run 3, Feed, time 0 min
  concentration in sample: 4870 µg/mL
[3]; Run 3, Raffinate, time 22 min
  concentration in sample: 1200 µg/mL
[3]; Run 3, Raffinate, time 27 min
  concentration in sample: 400 µg/mL
[3]; Run 3, Raffinate, time 31 min
  concentration in sample: 310 µg/mL
[3]; Run 3, Raffinate, time 37 min
  concentration in sample: 140 µg/mL
[3]; Run 3, Raffinate, time 43 min
  concentration in sample: 150 µg/mL
[3]; Run 3, Raffinate, time 70 min
  concentration in sample: 110 µg/mL
[3]; Run 3, Raffinate, time 74 min
  concentration in sample: 600 µg/mL
[3]; Run 3, Raffinate, time 78 min
  concentration in sample: 820 µg/mL
[3]; Run 3, Raffinate, time 82 min
  concentration in sample: 460 µg/mL
